Data taken from PubChem BioAssay AID1963958 (Molecular Pharmacology Branch, DTP, NCI, 2024).
pIC50: −log10 of the molar value.

Tested on: MDA-MB-231 multicell spheroids, viability
Assay: Anticancer human tumor MDA-MB-231 cell line growth inhibition [PI3K];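 also: spheroids exposed to agents for seven days before reading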;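 as to viability, T/C: percent of vehicle control luminescence with DMSO treated spheroids as 100%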
Conditions: for pIC50: curve of first compound; for viability, T/C: stronger effect = lower value
From the text: Combinatorial screen of targeted agents with the PI3K inhibitors inavolisib, alpelisib, duvelisib, and copanlisib in multi-cell type tumor spheroids
A high-throughput screen of multi-cell type tumor spheroids was designed to identify active combinations of targeted small molecules and PI3K pathway inhibitors. Complex spheroids include a stromal component modeled by human endothelial cells (HUVEC) and fibroblasts modeled by human mesenchymal stem cells (MSCs). The concentration ranges selected for each drug and investigational agent were based upon clinically achievable concentrations if the clinical Cmax of the agent was known.
Compounds. The drugs and investigational agents: inavolisib (NSC800729), alpelisib (NSC765974), duvelisib (NSC772469), copanlisib (NSC816437), ipatasertib (NSC767898), afuresertib (NSC778305), talazoparib (NSC767125), sapanisertib (NSC764658), selumetinib (NSC741078), tovorafenib (DAY101, NSC766906), vemurafenib (NSC761431), ravoxertinib (NSC781343), sotorasib (NSC818433), MRTX1133 (NSC 836407), abemaciclib (NSC 768073), palbociclib (NSC758247), venetoclax (NSC 766270), SY5609 (NSC837396), enzalutamide (NSC755605), and darolutamide (NSC825331), were obtained from the National Cancer Institute (NCI) Developmental Therapeutics Program Chemical Repository. The FDA-approved anticancer drug set is available from the NCI Developmental Therapeutics Program. […] The stock solutions were prepared in dimethyl sulfoxide (DMSO, Sigma-Aldrich, St. Louis, MO, cat. D2650) at 800-fold the tested concentration and stored at -70 degrees C prior to their use. All drugs and investigational agents were tested over a range starting from a high concentration at or near the clinical Cmax and decreasing in half-log increments. If the clinical Cmax for an agent had not been determined, the highest concentration tested was 10 microM.
Cell Culture. All cells were maintained in an incubator at 37 degrees C and 5% CO2 with 95% humidity. The PDC lines were cultured according to standard operating procedures established by the NCI PDMR (https://pdmr.cancer.gov/sops/default.htm). All PDCs were thawed and cultured in Matrigel-coated flasks prepared with a working solution of 1X Ham's F-12 nutrient mix, without supplementation (Invitrogen, Waltham, MA, cat. 11765054), 100 U/mL penicillin-streptomycin (Invitrogen, cat. 15140122), and 2.5% Matrigel (Corning Inc., Corning, NY, cat. 354248) for the first three passages. The 354836-022-R-J1-PDC, 475296-252-R-J1-PDC, and 997726-040-R-J2-PDC lines were cultured in 6A media, which includes advanced DMEM/F-12 (Thermo Fisher Scientific, cat. 12634028), 10 mM HEPES (Thermo Fisher Scientific, cat. 15630080), 1X GlutaMAX supplement (Thermo Fisher Scientific, cat. 35050061), 0.1 mg/mL primocin (InvivoGen, San Diego, CA, cat. ant-pm-2), 10% defined fetal bovine serum, heat inactivated (HyClone Laboratories Inc., Logan, UT, cat. SH30070.03HI), 50% L-WRN conditioned media (ATCC, cat. CRL-3276), 1.25 mM N-Acetyl-L-cysteine (Sigma-Aldrich, cat. A9165), 10 mM nicotinamide (Sigma-Aldrich, cat. N0636), 1X B-27 supplement (Thermo Fisher Scientific, cat. 17504044), 1X N-2 supplement (Thermo Fisher Scientific, cat. 17502048), and 10 microM Y-27632 dihydrochloride (Tocris Bioscience, Bristol, United Kingdom, cat. 1254). The 624824-186-R-J2-PDC line was cultured in 6C/Colon 1B media, which includes all 6A media components plus 50 ng/mL human EGF recombinant protein (Thermo Fisher Scientific, cat. PHG0311). […]

[1] = second compound 0.00316 µM, first compound 0.0316 µM
[2] = second compound 0.00316 µM, first compound 0.1 µM
[3] = second compound 0.01 µM, first compound 0.0316 µM
[4] = second compound 0.01 µM, first compound 0.1 µM
[5] = second compound 0.0316 µM, first compound 0.0316 µM
[6] = second compound 0.0316 µM, first compound 0.1 µM
[7] = second compound 0.1 µM, first compound 0.0316 µM
[8] = second compound 0.1 µM, first compound 0.1 µM
[9] = second compound 0.316 µM, first compound 0.0316 µM
[10] = second compound 0.316 µM, first compound 0.1 µM
[11] = second compound 1 µM, first compound 0.0316 µM
[12] = second compound 1 µM, first compound 0.1 µM

CC(C)n1nc(-c2ccc3oc(N)nc3c2)c2c(N)ncnc21 + CC(Nc1ccc2c(c1)OCCn1cc(N3C(=O)OCC3C(F)F)nc1-2)C(N)=O
pIC50 (second compound 0.00316 µM): 7.46 | pIC50 (second compound 0.01 µM): 7.56 | pIC50 (second compound 0.0316 µM): 7.89 | pIC50 (second compound 0.1 µM): 8.29 | pIC50 (second compound 0.316 µM): 8.46 | pIC50 (second compound 1 µM): 8.67 | viability, T/C (second compound 0.00316 µM, first compound 0.000316 µM): 101% | viability, T/C (second compound 0.00316 µM, first compound 0.001 µM): 92.6% | viability, T/C (second compound 0.00316 µM, first compound 0.00316 µM): 94.5% | viability, T/C (second compound 0.00316 µM, first compound 0.01 µM): 77.4% | viability, T/C [1]: 51.8% | viability, T/C [2]: 31.5% | viability, T/C (second compound 0.01 µM, first compound 0.000316 µM): 89.1% | viability, T/C (second compound 0.01 µM, first compound 0.001 µM): 93.7% | viability, T/C (second compound 0.01 µM, first compound 0.00316 µM): 89% | viability, T/C (second compound 0.01 µM, first compound 0.01 µM): 66% | viability, T/C [3]: 50% | viability, T/C [4]: 30.5% | viability, T/C (second compound 0.0316 µM, first compound 0.000316 µM): 81% | viability, T/C (second compound 0.0316 µM, first compound 0.001 µM): 74.6% | viability, T/C (second compound 0.0316 µM, first compound 0.00316 µM): 65.4% | viability, T/C (second compound 0.0316 µM, first compound 0.01 µM): 54.2% | viability, T/C [5]: 37.7% | viability, T/C [6]: 25.5% | viability, T/C (second compound 0.1 µM, first compound 0.000316 µM): 68.6% | viability, T/C (second compound 0.1 µM, first compound 0.001 µM): 63% | viability, T/C (second compound 0.1 µM, first compound 0.00316 µM): 55.2% | viability, T/C (second compound 0.1 µM, first compound 0.01 µM): 42.7% | viability, T/C [7]: 33.2% | viability, T/C [8]: 21.3% | viability, T/C (second compound 0.316 µM, first compound 0.000316 µM): 65.3% | viability, T/C (second compound 0.316 µM, first compound 0.001 µM): 60.2% | viability, T/C (second compound 0.316 µM, first compound 0.00316 µM): 49.5% | viability, T/C (second compound 0.316 µM, first compound 0.01 µM): 41.7% | viability, T/C [9]: 28.5% | viability, T/C [10]: 19.9% | viability, T/C (second compound 1 µM, first compound 0.000316 µM): 58.8% | viability, T/C (second compound 1 µM, first compound 0.001 µM): 54.7% | viability, T/C (second compound 1 µM, first compound 0.00316 µM): 48.3% | viability, T/C (second compound 1 µM, first compound 0.01 µM): 36.6% | viability, T/C [11]: 27.9% | viability, T/C [12]: 17.3%

CC1(C)CCC(CN2CCN(c3ccc(C(=O)NS(=O)(=O)c4ccc(NCC5CCOCC5)c([N+](=O)[O-])c4)c(Oc4cnc5[nH]ccc5c4)c3)CC2)=C(c2ccc(Cl)cc2)C1 + CC(Nc1ccc2c(c1)OCCn1cc(N3C(=O)OCC3C(F)F)nc1-2)C(N)=O
pIC50 (second compound 0.00316 µM): 5.16 | pIC50 (second compound 0.01 µM): 5.15 | pIC50 (second compound 0.0316 µM): 5.19 | pIC50 (second compound 0.1 µM): 5.26 | pIC50 (second compound 0.316 µM): 5.33 | pIC50 (second compound 1 µM): 5.36 | viability, T/C [1]: 95.8% | viability, T/C [2]: 92.2% | viability, T/C (second compound 0.00316 µM, first compound 0.316 µM): 104% | viability, T/C (second compound 0.00316 µM, first compound 1 µM): 111% | viability, T/C (second compound 0.00316 µM, first compound 3.16 µM): 105% | viability, T/C (second compound 0.00316 µM, first compound 10 µM): 25.5% | viability, T/C [3]: 94.1% | viability, T/C [4]: 99.1% | viability, T/C (second compound 0.01 µM, first compound 0.316 µM): 94.9% | viability, T/C (second compound 0.01 µM, first compound 1 µM): 96.4% | viability, T/C (second compound 0.01 µM, first compound 3.16 µM): 92.2% | viability, T/C (second compound 0.01 µM, first compound 10 µM): 31.8% | viability, T/C [5]: 83.8% | viability, T/C [6]: 77.5% | viability, T/C (second compound 0.0316 µM, first compound 0.316 µM): 79.3% | viability, T/C (second compound 0.0316 µM, first compound 1 µM): 85.8% | viability, T/C (second compound 0.0316 µM, first compound 3.16 µM): 86.6% | viability, T/C (second compound 0.0316 µM, first compound 10 µM): 29.5% | viability, T/C [7]: 77.2% | viability, T/C [8]: 69.1% | viability, T/C (second compound 0.1 µM, first compound 0.316 µM): 71.4% | viability, T/C (second compound 0.1 µM, first compound 1 µM): 69.6% | viability, T/C (second compound 0.1 µM, first compound 3.16 µM): 69.8% | viability, T/C (second compound 0.1 µM, first compound 10 µM): 28.2% | viability, T/C [9]: 64% | viability, T/C [10]: 64.6% | viability, T/C (second compound 0.316 µM, first compound 0.316 µM): 61.1% | viability, T/C (second compound 0.316 µM, first compound 1 µM): 66.4% | viability, T/C (second compound 0.316 µM, first compound 3.16 µM): 70.6% | viability, T/C (second compound 0.316 µM, first compound 10 µM): 21.4% | viability, T/C [11]: 64.9% | viability, T/C [12]: 60.2% | viability, T/C (second compound 1 µM, first compound 0.316 µM): 60.8% | viability, T/C (second compound 1 µM, first compound 1 µM): 60.2% | viability, T/C (second compound 1 µM, first compound 3.16 µM): 65.5% | viability, T/C (second compound 1 µM, first compound 10 µM): 18.3%
